In brackets after ≈: the same amount, converted by molar mass.
Columns and labels:
[1] = system: Candida albicans; assay: In vitro Anti-Candida activity, dilutions in Sabouraud's Dextrose Agar (Table III); type: cell-based; settings: 48 h
Description: (§1) All the tests were carried out and (when necessary) scored under standard conditions. "MIC" means "minimum inhibitory concentration."
In vitro Anti-Candida Activity of 2-aminoalkyl-3-phenyl-
indoles of the formula I. Dilutions in Sabouraud's Dextrose
MIC (mcg/ml) after 48 hours

[2] = system: Trychomonas vaginalis; assay: In vitro Anti-Trichomonal activity (Table VII); type: cell-based
Description: as §1
In vitro Anti-Trichomonal Activity of some 2-aminoalkyl-3-
phenyl-indenes of formula II.

[3] = system: Clostridium histolyticum; assay: In vitro activity against anaerobes in fluid Thioglycollate medium (Table II); type: cell-based; settings: Hathewaya histolytica
Method in brief: (§2)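 Tests were run and, where needed, scored under standard conditions. Values are minimum inhibitory concentrations (MIC).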

[4] = system: Bacteroides corrodens; assay: as above; type: cell-based; settings: Eikenella corrodens
Method in brief: as §2

[5] = system: Peptostreptococcus; assay: as above; type: cell-based
Method in brief: as §2

[6] = system: Bacteroides fragilis; assay: as above; type: cell-based
Method in brief: as §2

[7] = system: Bacteroides melaninogenicus; assay: as above; type: cell-based
Method in brief: as §2

[8] = system: Eubacterium lentum; assay: as above; type: cell-based; settings: Eggerthella lenta
Method in brief: as §2

[9] = system: Clostridium septicum; assay: as above; type: cell-based
Method in brief: as §2

[10] = system: Clostridium novyi; assay: as above; type: cell-based
Method in brief: as §2

[11] = system: Aspergillus niger 6275; assay: In vitro antifungal activity, dilutions in Sabouraud's Dextrose Broth (Table IV); type: cell-based; settings: after 96 hours
Method in brief: (§3)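 Tests were run and, where needed, scored under standard conditions. Values are minimum inhibitory concentrations (MIC) from serial broth dilution.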

[12] = system: Trichophyton schoenleinii; assay: as above; type: cell-based; settings: 96 h
Method in brief: as §3

[13] = system: Trichophyton soudenense; assay: as above; type: cell-based; settings: after 96 hours
Method in brief: as §3

[14] = system: Microsporum distortum; assay: as above; type: cell-based; settings: after 96 hours
Method in brief: as §3

[15] = system: Microsporum nanum; assay: as above; type: cell-based; settings: Nannizzia nana; after 96 hours
Method in brief: as §3

[16] = system: Trichophyton discoides; assay: as above; type: cell-based; settings: after 96 hours
Method in brief: as §3

[17] = system: Trichophyton ascoides; assay: as above; type: cell-based; settings: after 96 hours
Method in brief: as §3

[18] = system: Trichophyton ferrugineum; assay: as above; type: cell-based; settings: Microsporum ferrugineum; after 96 hours
Method in brief: as §3

[19] = system: Trichophyton tonsurans; assay: as above; type: cell-based; settings: after 96 hours
Method in brief: as §3

[20] = system: Trichophyton gallinae; assay: as above; type: cell-based; settings: after 96 hours
Method in brief: as §3

[21] = system: Epidermophyton floccosum; assay: as above; type: cell-based; settings: after 96 hours
Method in brief: as §3

[22] = system: Trichophyton mentagrophytes; assay: as above; type: cell-based; settings: 96 h
Method in brief: as §3

[23] = system: Tricoderm sp.; assay: as above; type: cell-based; settings: after 96 hours
Method in brief: as §3

[24] = system: Trichophyton megninii; assay: as above; type: cell-based; settings: Trichophyton rubrum; after 96 hours
Method in brief: as §3

[25] = system: Trichophyton rubrum; assay: as above; type: cell-based; settings: 96 h
Method in brief: as §3

[26] = system: Aspergillus sp. No. 3; assay: as above; type: cell-based; settings: after 96 hours
Method in brief: as §3

[27] = system: Escherichia coli; assay: In vitro antibacterial activity, dilution in Mueller Hinton Agar (Table I); type: cell-based
Method in brief: (§4)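 Agar dilution at pH 7.4, run and scored under standard conditions. Values are minimum inhibitory concentrations (MIC).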

[28] = system: Proteus mirabilis; assay: as above; type: cell-based; settings: Mueller Hinton Agar pH 7.4
Method in brief: as §4

[29] = system: Streptococcus pyogenes; assay: as above; type: cell-based
Method in brief: as §4

[30] = Acute toxicity in mice (Table V); settings: mouse, in vivo
Description: as §1
Acute Toxicity of 2-aminoalkyl-3-phenylindoles of the formula I

Structure (SMILES): NCc1[nH]c2cc(Br)c(Cl)cc2c1-c1ccccc1 [D, 2-aminomethyl-6-bromo-5-chloro-3-phenylindole]
- MIC ([1]; strain 1, after 48 hours): 150 µg/mL (≈ 447 µM)
- MIC ([1]; strain 2, after 48 hours): 150 µg/mL (≈ 447 µM)
- MIC ([1]; strain 3, after 48 hours): 75 µg/mL (≈ 223 µM)
- MIC ([1]; strain 4, after 48 hours): 37.5 µg/mL (≈ 112 µM)
- MIC ([1]; strain 5, after 48 hours): 75 µg/mL (≈ 223 µM)
- MIC ([1]; strain 6, after 48 hours): 150 µg/mL (≈ 447 µM)
- MIC ([1]; strain 8, after 48 hours): 150 µg/mL (≈ 447 µM)
- MIC ([1]; strain 9, after 48 hours): 150 µg/mL (≈ 447 µM)
- MIC ([1]; strain 29, after 48 hours): 75 µg/mL (≈ 223 µM)
- MIC ([1]; strain Atkisson, after 48 hours): 150 µg/mL (≈ 447 µM)
- MIC ([1]; strain Bertrand, after 48 hours): 150 µg/mL (≈ 447 µM)
- MIC ([1]; strain Bevan, after 48 hours): 150 µg/mL (≈ 447 µM)
- MIC ([1]; strain Blunden, after 48 hours): 17.5 µg/mL (≈ 52.1 µM)
- MIC ([1]; strain Bognay, after 48 hours): 75 µg/mL (≈ 223 µM)
- MIC ([1]; strain Boyer, after 48 hours): 150 µg/mL (≈ 447 µM)
- MIC ([1]; strain Burke, after 48 hours): 150 µg/mL (≈ 447 µM)
- MIC ([1]; strain Burnside, after 48 hours): 75 µg/mL (≈ 223 µM)
- MIC ([1]; strain Collins, after 48 hours): 75 µg/mL (≈ 223 µM)
- MIC ([1]; strain Fix, after 48 hours): 75 µg/mL (≈ 223 µM)
- MIC ([1]; strain Frazier, after 48 hours): 150 µg/mL (≈ 447 µM)
- MIC ([1]; strain Fulcher, after 48 hours): 75 µg/mL (≈ 223 µM)
- MIC ([1]; strain Gay, after 48 hours): 150 µg/mL (≈ 447 µM)
- MIC ([1]; strain Hons, after 48 hours): 150 µg/mL (≈ 447 µM)
- MIC ([1]; strain Johnson, after 48 hours): 150 µg/mL (≈ 447 µM)
- MIC ([1]; strain Kenndy 2, after 48 hours): 150 µg/mL (≈ 447 µM)
- MIC ([1]; strain Kennedy 1, after 48 hours): 17.5 µg/mL (≈ 52.1 µM)
- MIC ([1]; strain Lehtman, after 48 hours): 150 µg/mL (≈ 447 µM)
- MIC ([1]; strain Lusk, after 48 hours): 75 µg/mL (≈ 223 µM)
- MIC ([1]; strain Merkel, after 48 hours): 75 µg/mL (≈ 223 µM)
- MIC ([1]; strain Newcomb, after 48 hours): 17.5 µg/mL (≈ 52.1 µM)
- MIC ([1]; strain Sherod, after 48 hours): 150 µg/mL (≈ 447 µM)
- MIC ([1]; strain Shurelli, after 48 hours): 150 µg/mL (≈ 447 µM)
- MIC ([1]; strain Sparks, after 48 hours): 150 µg/mL (≈ 447 µM)
- MIC ([1]; strain Tyner, after 48 hours): 75 µg/mL (≈ 223 µM)
- IC50 ([2]; 50% suppression, read-out: Minimal Level to Produce 50% Suppression): 20 µg/mL (≈ 59.6 µM)
- IC90 ([2]; 90% suppression, read-out: Minimal Level to Produce 90% Suppression): 38 µg/mL (≈ 113 µM)
- MIC ([3]; 48 hrs): 0.3 µg/mL (≈ 0.894 µM)
- MIC ([3]; 72 hrs): 0.3 µg/mL (≈ 0.894 µM)
- MIC ([4]; 48 hrs): 0.75 µg/mL (≈ 2.23 µM)
- MIC ([4]; 72 hrs): 0.75 µg/mL (≈ 2.23 µM)
- MIC ([5]; 48 hrs): 0.3 µg/mL (≈ 0.894 µM)
- MIC ([5]; 72 hrs): 0.3 µg/mL (≈ 0.894 µM)
- MIC ([6]; 48 hrs): 0.75 µg/mL (≈ 2.23 µM)
- MIC ([6]; 72 hrs): 0.75 µg/mL (≈ 2.23 µM)
- MIC ([7]; 48 hrs): 3 µg/mL (≈ 8.94 µM)
- MIC ([7]; 72 hrs): 3 µg/mL (≈ 8.94 µM)
- MIC ([8]; 48 hrs): 0.75 µg/mL (≈ 2.23 µM)
- MIC ([8]; 72 hrs): 0.75 µg/mL (≈ 2.23 µM)
- MIC ([9]; 48 hrs): 0.75 µg/mL (≈ 2.23 µM)
- MIC ([9]; 72 hrs): 0.75 µg/mL (≈ 2.23 µM)
- MIC ([10]; 48 hrs): 0.75 µg/mL (≈ 2.23 µM)
- MIC ([10]; 72 hrs): 0.75 µg/mL (≈ 2.23 µM)
- MIC [11]: 17.5 µg/mL (≈ 52.1 µM)
- MIC ([12]; strain 2, after 96 hours): 7.5 µg/mL (≈ 22.3 µM)
- MIC ([12]; strain not given, after 96 hours): 7.5 µg/mL (≈ 22.3 µM)
- MIC [13]: 3 µg/mL (≈ 8.94 µM)
- MIC [14]: 3 µg/mL (≈ 8.94 µM)
- MIC [15]: 3 µg/mL (≈ 8.94 µM)
- MIC [16]: 7.5 µg/mL (≈ 22.3 µM)
- MIC [17]: 7.5 µg/mL (≈ 22.3 µM)
- MIC [18]: 17.5 µg/mL (≈ 52.1 µM)
- MIC [19]: 17.5 µg/mL (≈ 52.1 µM)
- MIC [20]: 75 µg/mL (≈ 223 µM)
- MIC [21]: 7.5 µg/mL (≈ 22.3 µM)
- MIC ([22]; strain A, after 96 hours): 7.5 µg/mL (≈ 22.3 µM)
- MIC ([22]; strain B, after 96 hours): 3 µg/mL (≈ 8.94 µM)
- MIC ([22]; strain C, after 96 hours): 3 µg/mL (≈ 8.94 µM)
- MIC ([22]; strain H377, after 96 hours): 7.5 µg/mL (≈ 22.3 µM)
- MIC ([22]; strain Young, after 96 hours): 7.5 µg/mL (≈ 22.3 µM)
- MIC [23]: 7.5 µg/mL (≈ 22.3 µM)
- MIC [24]: 3 µg/mL (≈ 8.94 µM)
- MIC ([25]; strain 3, after 96 hours): 3 µg/mL (≈ 8.94 µM)
- MIC ([25]; strain 360, after 96 hours): 3 µg/mL (≈ 8.94 µM)
- MIC ([25]; strain Blehl, after 96 hours): 7.5 µg/mL (≈ 22.3 µM)
- MIC ([25]; strain Haggerty, after 96 hours): 7.5 µg/mL (≈ 22.3 µM)
- MIC [26]: 17.5 µg/mL (≈ 52.1 µM)
- MIC ([27]; pH 7.4, strain 777, Mueller Hinton Agar pH 7.4): 3 µg/mL (≈ 8.94 µM)
- MIC ([27]; pH 7.4, strain 1574-1, Mueller Hinton Agar pH 7.4): 3 µg/mL (≈ 8.94 µM)
- MIC ([27]; pH 7.4, strain 4195, Mueller Hinton Agar pH 7.4): 3 µg/mL (≈ 8.94 µM)
- MIC ([27]; pH 7.4, strain 10536, Mueller Hinton Agar pH 7.4): 3 µg/mL (≈ 8.94 µM)
- MIC ([27]; pH 7.4, strain JR66, Mueller Hinton Agar pH 7.4): 3 µg/mL (≈ 8.94 µM)
- MIC ([28]; pH 7.4, strain Hard): 3 µg/mL (≈ 8.94 µM)
- MIC ([28]; pH 7.4, strain Peras): 3 µg/mL (≈ 8.94 µM)
- MIC ([29]; pH 7.4, strain 27, Mueller Hinton Agar pH 7.4): 3 µg/mL (≈ 8.94 µM)
- MIC ([29]; pH 7.4, strain C, Mueller Hinton Agar pH 7.4): 3 µg/mL (≈ 8.94 µM)
- MIC ([29]; pH 7.4, strain Cruz, Mueller Hinton Agar pH 7.4): 3 µg/mL (≈ 8.94 µM)
- LD50 ([30]; Oral): ~950 mg/kg
- LD50 ([30]; ip, I.P.): 175 mg/kg
- LD50 ([30]; sc, S.C.): 750 mg/kg

Reference: patent US4122034A, “Antimicrobial compositions” (Schering Corporation, priority 1975, dated 1978)
